Reference: article PMC9254247, “Dual-sensitive antibacterial peptide nanoparticles prevent dental caries” (Theranostics, 2022)
No end group written: not given here.

Experiments:
[1] = system: S. mutans UA159; assay: Bacterial killing assay (CFU counting), S. mutans UA159; type: cell-based, Streptococcus mutans; conditions: for bactericidal effect: 10 min
Method: Minimal inhibition concentration (MIC) determination . S.mutans UA159 (ATCC 700610) and 20 clinical S.mutans strains were used. S.mutans UA159 was purchased from Shanghai Biofeng Biotechnology Co., LTD. These bacteria grown in brain heart infusion broth (BHI, Beijing Land Bridge, China) at 37 °C under anaerobic conditions. […]
Bacterial killing by pHly-1 NPs at various pHs. pHly-1 NPs were diluted in BHI medium of different pHs (pH 4.5, 5.5, 6.8, and 7.0) to obtain specific diluted solutions (final volume of 200 μ L). 1 μ L bacterial suspension (2×10^8 CFU/mL) in the logarithmic phase was added into corresponding diluted solutions and mixed […]
individually. […]
aliquots of 20 μL bacterial suspension were plated on BHI agar plates. The bacterial killing activity of pHly -1 NPs was measured by counting the CFU of alive bacteria with agar plating after incubation under anaerobic conditions for 48 h at 37 °C. The results were determined and presented of three repeats. Bacterial survival(%) = CFU of bacteria treated with drugs/CFU of bacteria treated with negative control× 100% 2.
The SYTO 9 / PI double staining and scanning electron microscopy (SEM) were also performed to evaluate the bacterial killing and bacterial membrane disruption.
For SYTO 9/PI double staining, pHly -1 NPs was added to actively growing S. mutans UA159 (10^6 CFU/m L) at the concentration of 22 μM at pH 4.5 or pH 7.0, after 1 h incubation, the bacteria treated were imaged by using LIVE/DEAD BacLight Bacterial Viability Kit (Thermo Fisher Scientific). SYTO 9 and PI were added according to the manufacturer ’s protocol and used for labeling […]
bacteria. […]
For SEM, S. mutans UA159 was treated by the same way to SYTO 9/PI double staining asay and then harvested, washed, and then fixed in 2.5 % glutaraldehyde for 3 h. After dehydration by serial concentrations of ethanol solutions (10%, 25%, 50%, 75%, 95%, and 100%) and lyophiliz ation overnight, the lyophilized samples were coated with goldand then photographed by SEM.

[2] = system: human gingival fibroblast (HGF-1); assay: Cytotoxicity, CCK-8 assay; type: cell-based; conditions: HGF1
Description: Figure S12. H&E staining of gingival, palatal and gastric tissues(Scale bar: 100
Supplementary Fig.13. The toxicity of pHly -1 NPs to human gingival fibroblast
(HGF-1) was assessment by CCK-8 assay. DMEM medium(10 % FBS) was used
for cell culture and DMEM m edium was used for drug preparation in toxicity tests.
The All of the data are represented as average±SD. Each experiment consists of 3 […]

[3] = system: fresh mice erythrocytes; type: cell-based, mouse; conditions: 30 min, PBS pH 7.4
Description: Peptide and different pH of culture medium prepared. The pH of BHI medium was adjusted by HCl and NaOH. All peptides, including lycosin- I, pHly-1, s-pHly-1 were synthesized on a Rink amide-AM resin using the SPPS
(9- fluorenyl-methoxycarbonyl solid-phase peptide synthesis) method as reported previously1. Then peptides were cleaved from the resin using TFA/1,2- ethanedithiol/thioanisole/anisole (90/5/3/2 (v/v)), precipitated in cold diethyl ether and the collected precipitate was dried by air -drying . The prepared peptides were purified by reverse phase- HPLC (RP-HPLC) and their molecular weights were determined by MALDI-TOF MS.
Hemolytic assay. Approximately 4 % (in volume) of the mouse erythrocyte s were prepared by diluting fresh erythrocytes to 25-fold dilution with PBS buffer (pH 7.4).
The stock peptide solution ([…]) diluted by PBS solution to reach various concentrations (200 μL) was placed in a 1.5 mL sterile microfuge tube, followed by the addition of 200 μ L o f erythrocyte suspension. The mixture was incubated at 37 °C for 30 min. Then, the mixture was centrifuged at 3,500 rpm for 5 min to collect the supernatant. Aliquots (100 μL) of the supernatant were removed to 96-well plates, and the absorbance was detected at 450 nm using a microplate reader (Multiskan Spectrum, BioTek Inc., USA). Untreated erythrocyte suspension in an equal volume of PBS solution and 0.1% Triton X-100 were used as the negative control and positive […]
Isolation and culture of clinical S.mutans strains. Ethical approval of the study and the written consent/permission forms were obtained from Institutional Review Board (IRB) at Hunan Normal University prior to the study. For each child, written permission form was reviewed and signed by their legal guardians. Plaque -biofilm samples were collected from patients, including 16 Middle-aged and young patients and 4 children (age between 48 and 72 months) diagnosed with severe early childhood caries (S-ECC) in Changsha Stomatological Hospital. […]

In the case of `[H]/N=C(\N/C(=N/[H])NCCCCCCNC(=N)NC(=N)Nc1ccc(Cl)cc1)Nc1ccc(Cl)cc1` [CHX, chlorhexidine], the bactericidal effect ([1]; 22 μM, both acidic and neutral pH) is reported as “no apparent bactericidal effect”, the bacterial survival ([1]; 22 μM, 120 min, kinetic assay) is reported as “ca. 60%” and the bactericidal effect ([1]; 550 μM, both acidic and neutral conditions) is reported as “kill bacteria completely”. The IC50 [2] was 4.9 µM.
In the case of “KIWFHAMHIIAHFIAHQHLHQHL-NH2 [pHly-1 NPs]”, the hemolysis ([3]; 500 μM) is reported as “about 20%” and the HC50 ([3]; 37 °C) is reported as over 500 µM.
